The data set addresses HSD17B13. To be noted: ASO, HepaRG.

“And” between values parts separate entries of the source, which are not always exact repeats. Identical values can stand only once. After the bases stand the sugars from the 5' end (letter, count) and the backbone: PS all phosphorothioate, else s phosphorothioate and o phosphodiester by linkage. Methylation of C is not given here. e = 2'-O-(2-methoxyethyl) (MOE); k = constrained ethyl (cEt); d = 2'-deoxy (DNA); m = 2'-O-methyl

As for TAAAGGTTTCTGTTGC (sugars k3 d10 k3, PS), the target mRNA inhibition was determined as 0% (0.02 µM); 9% (0.078 µM); 32% (0.313 µM); 66% (1 µM); 67% (1.25 µM); 74% (5 µM).

With CATAGTGGACTTCATT (sugars k3 d10 k3, PS), the target mRNA inhibition (1 µM) was 34%. Still for that read-out and setting: under “TAAGCAGAATTGTGAA (sugars kkdddddddddkekek, PS)” stands 29%. Turning to ATCCTATATACATCCA (sugars k3 d10 k3, PS), the target mRNA inhibition is, setting by setting: (0.02 µM) 3%; (0.078 µM) 8%; (0.313 µM) 36%; (1 µM) 76%; (1.25 µM) 72%; (5 µM) 92%.

Consider CTCAAAGCCTGTTGGA (sugars k3 d10 k3, PS), for which the target mRNA inhibition (1 µM) is 10%. The same measure, in the same setting: under “TAGAATAGTCTTCAGC (sugars kkdddddddddkekek, PS)” stands 50%; under CAAGGAGTACTTCACA (sugars k3 d10 k3, PS), 66%. Same read-out and setting: for AATAGAGTCGGTCACC (sugars k3 d10 k3, PS) the value was 58%; for ACAAGTGACAGCATTG (sugars k3 d10 k3, PS), 44%; for TTAATGCCACCCTACC (sugars k3 d10 k3, PS), 19%. For the setting “1 µM”, “TTAAACCTTCCCTGTG (sugars k3 d1 m1 d8 k3, PS)” returned a target mRNA inhibition of 23%. Still for that read-out and setting: for CAGAAAGTTCATTCGA (sugars k3 d10 k3, PS) the value was 67%; for CATTTAGAATACGCTG (sugars k3 d10 k3, PS), 25%. Regarding “GTATCTTATAAGACTA (sugars kkdddddddddkekek, PS)”, the target mRNA inhibition (1 µM) was found to be 61%. Regarding “CAGCATTGATTCGAAA (sugars kkdddddddddkekek, PS)”, the target mRNA inhibition (1 µM) amounted to 58%.

AGAGCATAAGTTACCA (sugars k3 d10 k3, PS): the target mRNA inhibition reads like this: (0.02 µM) 4%; (0.078 µM) 11%; (0.313 µM) 50%; (1 µM) 88%; (1.25 µM) 78%; (5 µM) 79%. Regarding TGAACCGTATTCCCAA (sugars k3 d10 k3, PS), the target mRNA inhibition by setting is: (0.02 µM) 26%; (0.078 µM) 8%; (0.313 µM) 59%; (1 µM) 76%; (1.25 µM) 81%; (5 µM) 93%. “TTAGTCTTGATGTAGT (sugars kkdddddddddkekek, PS)”: the target mRNA inhibition (1 µM) was 36%.

“AAAAUAGAGTCGGTCA (sugars k3 d1 m1 d8 k3, PS)” gave a target mRNA inhibition (1 µM) of 62%. The same measure, in the same setting: under TATAACTACAAGAGGT (sugars k3 d10 k3, PS) stands 46%; under “TTAGTCTTGATGTAGT (sugars k3 d9 k3 e1, PS)”, 61%; under GATACTGGTGGACAAG (sugars k3 d10 k3, PS), 13%. Under “1 µM”, TGTCCACCTTTAAATG (sugars k3 d10 k3, PS) came in with a target mRNA inhibition of 29%. Regarding GCCAAAAATCAGCCAC (sugars k3 d10 k3, PS), the target mRNA inhibition (1 µM) was 11%. Turning to CGAATTTCTTCAAAGA (sugars k3 d10 k3, PS), where the note is “1 µM”, the target mRNA inhibition was determined as 55%. In turn, ACTAATATTGAGGCAC (sugars k3 d10 k3, PS) displayed a target mRNA inhibition (1 µM) of 19%. Same read-out and setting: for “TCCTGTGTTAGCTTTA (sugars k3 d1 m1 d8 k3, PS)” the value was 72%. Consider TCCCAACCAAACTTCC (sugars k3 d10 k3, PS), for which the target mRNA inhibition is, setting by setting: (0.02 µM) 0%; (0.078 µM) 0%; (0.313 µM) 7%; (1 µM) 82%; (1.25 µM) 25%; (5 µM) 63% and 50%. Under “1 µM”, TCACTATATTGCATTC (sugars k3 d10 k3, PS) came in with a target mRNA inhibition of 35%. Same read-out and setting: for “ATGTATCTTATAAGAC (sugars k3 d9 k3 e1, PS)” the value was 24%; for “GTTAGAATAGTCTTCA (sugars k3 d1 m1 d8 k3, PS)”, 42%; for “CAGCATCAAGACATTC (sugars k3 d1 m1 d8 k3, PS)”, 52%. GAACACTGTCATAAAG (sugars k3 d10 k3, PS): under “1 µM”, the target mRNA inhibition is 43%. On the same count and under the same terms, under AGGCAGTTGAAGTTGA (sugars k3 d10 k3, PS) stands 47%. The same measure, in the same setting: for CCATGCAAAAGCATTC (sugars k3 d10 k3, PS) the value was 72%. The same measure, in the same setting: under ATGGGATGAGGTAAGG (sugars k3 d10 k3, PS) stands 46%. Turning to CTCCTTATGTTATCTC (sugars k3 d10 k3, PS), the target mRNA inhibition (1 µM) was 57%. GCGATAGATCTCTTCT (sugars k3 d10 k3, PS) yielded a target mRNA inhibition (1 µM) of 24%. The sequence ATGTTAGGACCCAGTC (sugars k3 d10 k3, PS) returned a target mRNA inhibition (1 µM) of 60%. Where the note is “1 µM”, “TCGGTCACCTTTCATA (sugars k3 d9 k3 e1, PS)” registered a target mRNA inhibition of 72%. The same measure, in the same setting: for “GTATUCCATCTATCAG (sugars k3 d1 m1 d8 k3, PS)” the value was 41%. Still for that read-out and setting: for “ATAGAGTTGCACCGTT (sugars k3 d9 k3 e1, PS)” the value was 71%. Same read-out and setting: under AATTCTAAACTAGTGG (sugars k3 d10 k3, PS) stands 31%; under ATCTTATAAGACTATA (sugars k3 d10 k3, PS), 32%. For the setting “1 µM”, “CCAACCAAACTTCCAG (sugars k3 d1 m1 d8 k3, PS)” had a target mRNA inhibition of 30%. With AGTTTAGATTGCATAA (sugars k3 d10 k3, PS), for the setting “1 µM”, the target mRNA inhibition came out at 50%.

CTTGGAAGGAGACTGG (sugars k3 d10 k3, PS) registered a target mRNA inhibition (1 µM) of 60%. Sequence TTTAAGAGGCATGAAA (sugars k3 d10 k3, PS) registered a target mRNA inhibition (1 µM) of 40%. For TTACAGCCTTAGAGTG (sugars k3 d10 k3, PS), the target mRNA inhibition (1 µM) worked out at 21%. On the same count and under the same terms, under “ACTTGAACAGTCTTAA (sugars k3 d9 k3 e1, PS)” stands 60%; under CGGCTGGATATACTGT (sugars k3 d10 k3, PS), 35%; under CTAGGATGATGTTCAT (sugars k3 d10 k3, PS), 47%. As for AAGATAAGTAGATGGT (sugars k3 d10 k3, PS), the target mRNA inhibition amounted to 7% (0.02 µM); 26% (0.078 µM); 58% (0.313 µM); 79% (1 µM); 77% (1.25 µM); 89% (5 µM). For “TCTTGACAATGGTTGC (sugars kkdddddddddkekek, PS)”, the target mRNA inhibition (1 µM) came out at 37%. Regarding TCATAGCTCACTTAGT (sugars k3 d10 k3, PS), the target mRNA inhibition (1 µM) was found to be 0%. Still for that read-out and setting: under TTCCATAAAGCTGGAT (sugars k3 d10 k3, PS) stands 5%.
